In patent US10150737B2, “Compounds for controlling arthropods” (priority 2013, dated 2018):

Assays:
[1] = logP determination by HPLC on a reversed-phase column (C18); format: physicochemical; conditions: for logP^a): HPLC-MS method a); for log P: HPLC-MS
[2] = test system: Rhipicephalus sanguineus; experiment: Rhipicephalus sanguineus - in vitro contact tests with adult brown dog ticks; format: in vivo; conditions: after 48 h, ticks dead or moribund
Procedure, shortened: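 Test tubes coated with active ingredient in acetone, 5 μg/cm^2 at 900 ppm. 5-10 adult ticks per tube, kept dark at room temperature for 48 h. Ticks then heated at 45-50° C ≤5 min; motionless or uncoordinated ticks scored dead/moribund, efficacy as % dead or moribund.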

[3] = test system: Ctenocephalides felis; experiment: Ctenocephalides felis - in vitro contact tests with adult cat fleas; format: in vivo; conditions: application rate 5 μg/cm2 (=500 g/ha); after 48 h; fleas dead or moribund
Procedure, shortened: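 Tubes coated with compound in acetone (250 μl of 900 ppm solution gives 5 μg/cm^2 on 44.7 cm^2), solvent evaporated, then 5–10 adult fleas added and kept horizontal at room temperature and ambient humidity. After 48 h, dead or moribund (motionless/uncoordinated) fleas scored as % efficacy.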

[4] = test system: Amblyomma hebraeum; experiment: Amblyomma hebaraeum test (tick nymphs, immersion); format: in vivo; conditions: application rate 100 ppm; tick nymphs immersed one minute; after 42 days
Experimental: Solvent: dimethyl sulphoxide
To produce an appropriate active ingredient formulation, 10 mg of active ingredient are mixed with 0.5 ml of dimethyl sulphoxide, and the concentrate is diluted with water to the desired concentration.
Tick nymphs (Amblyomma hebraeum) are placed into perforated plastic beakers and immersed in the desired concentration for one minute. The ticks are transferred on filter paper into a Petri dish and stored in a climate-controlled cabinet.
After 42 days, the kill in % is determined. 100% means that all of the ticks have been killed; 0% means that none of the ticks have been killed.

[5] = test system: Boophilus microplus; experiment: Boophilus microplus - injection test; format: in vivo; conditions: application rate 20 μg/animal; injection into engorged adult female ticks; after 7 days
Procedure, shortened: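 Active ingredient in DMSO, 1 μl injected into the abdomen of 5 engorged adult female ticks, then held in a climate-controlled room. Efficacy scored after 7 days from laying of fertile eggs, with non-fertile-looking eggs kept about 42 days for larval hatch; 100% means no fertile eggs.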

[6] = test system: Boophilus microplus Parkhurst strain, SP-resistant; experiment: Boophilus microplus - dip test; format: in vivo; conditions: application rate 100 ppm; dip of engorged adult female ticks; after 7 days
Procedure, shortened: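 SP-resistant Parkhurst strain engorged adult female Boophilus microplus (8-10 per tube) dipped in DMSO-based compound dilutions in water, then kept in a climate-controlled room. Efficacy scored after 7 days from fertile egg laying, with larval hatch checked after about 42 days; 100% means no fertile eggs.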

[7] = test system: Ctenocephalides felis; experiment: Ctenocephalides felis - oral test; format: in vivo; conditions: application rate 100 ppm in citrated cattle blood; after 2 days
Procedure, shortened: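 Compound in DMSO diluted into citrated cattle blood, fed through a parafilm membrane to about 20 unfed adult cat fleas. Kill in % scored after 2 days (100% = all dead).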

[8] = test system: Lucilia cuprina; experiment: Lucilia cuprina test; format: in vivo; conditions: application rate 100 ppm; L1 larvae; after 2 days
Procedure, shortened: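 About 20 L1 larvae placed on minced horsemeat treated with compound, formulated in DMSO and diluted with water to test concentration. Kill in % scored after 2 days (100% = all larvae dead, 0% = none).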

[9] = test system: Musca domestica; experiment: Musca domestica test; format: in vivo; conditions: application rate 100 ppm; adult houseflies; after 2 days
Procedure, shortened: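 Compound dissolved in DMSO (10 mg per 0.5 ml) and diluted with water to the test concentration. Sponges soaked with sugar solution plus formulation were offered to 10 adult houseflies per vessel. Mortality (% kill, 100% = all dead, 0% = none) scored after 2 days.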

[10] = test system: Phaedon cochleariae; experiment: Phaedon cochleariae - spray test; format: in vivo; conditions: larvae on Chinese cabbage leaf discs, after 7 days
Procedure, shortened: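 Chinese cabbage leaf discs sprayed with compound formulated in acetone/DMF and water containing 1000 ppm emulsifier; once dry, infested with mustard beetle larvae. Efficacy (% larvae killed) scored after 7 days.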

[11] = test system: Spodoptera frugiperda; experiment: Spodoptera frugiperda - spray test; format: in vivo; conditions: caterpillars on maize leaf discs, after 7 days
Procedure, shortened: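 Maize leaf discs sprayed with compound formulated in acetone/DMF and diluted in water containing 1000 ppm alkylaryl polyglycol ether emulsifier, then infested with armyworm caterpillars after drying. Efficacy scored after 7 days as % caterpillars killed (100% all, 0% none).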

[12] = test system: Tetranychus urticae; experiment: Tetranychus urticae - spray test, OP-resistant; format: in vivo; conditions: bean leaf discs, after 6 days
Procedure, shortened: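 Compound dissolved in acetone/DMF, diluted with water containing 1000 ppm alkylaryl polyglycol ether emulsifier to test concentrations. Bean leaf discs infested with all stages of spider mites were sprayed; % kill determined after 6 days (100% = all mites dead, 0% = none).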

[13] = test system: Myzus persicae; experiment: Myzus persicae - spray test; format: in vivo; conditions: Chinese cabbage leaf discs, after 6 days
Procedure, shortened: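 Chinese cabbage leaf discs carrying all stages of Myzus persicae sprayed with compound in acetone/DMF diluted in water with 1000 ppm emulsifier. Efficacy (% aphids killed) assessed after 6 days.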

[14] = reversed-phase column (C18), Table I-T3

SMILES	logP^a) [1]	logP^a) [1, 14]	efficacy ([2]; application rate 5 μg/cm2) [%]	efficacy [3] [%]	efficacy (kill) [4] [%]	efficacy (laying of fertile eggs) [5] [%]	efficacy (laying of fertile eggs) [6] [%]	efficacy (kill) [7] [%]	efficacy (kill) [8] [%]	efficacy (kill) [9] [%]	efficacy ([10]; application rate 100 g/ha) [%]	efficacy ([11]; application rate 100 g/ha) [%]	efficacy ([12]; application rate 100 g/ha) [%]	logP^a) ([1]; reversed-phase column (C18))	log P [1, 14]	efficacy ([10]; application rate 500 g/ha) [%]	efficacy ([11]; application rate 500 g/ha) [%]	efficacy ([12]; application rate 500 g/ha) [%]	other results
Cc1cc(C(F)(C(F)(F)F)C(F)(F)F)cc(C)c1-n1cc(-c2ccc(Cl)c(C(=O)NC3CC3)c2)cn1 [I-T3-1]	4.4	4.4	100	100	100	100	100	100	100	100	100	100	100						
O=C(NC1CC1)c1cc(-c2cnn(-c3c(Cl)cc(C(F)(C(F)(F)F)C(F)(F)F)cc3C(F)(F)F)c2)ccc1Cl [I-T3-56]	4.4	4.4	100	100	100	100	100	100	100	100	100	100	100						
O=C(NC1CC1)c1cc(-c2cnn(-c3c(F)cc(C(F)(C(F)(F)F)C(F)(F)F)cc3F)c2)ccc1Cl [I-T3-61]	4.0	4.0	100	100	80	100	100	100	100	100	100	100	100						
Cc1cc(C(F)(C(F)(F)F)C(F)(F)F)cc(Cl)c1-n1cc(-c2ccc(Cl)c(C(=O)NC3CC3)c2)cn1 [I-T3-63]	4.4	4.4	100	100	100	100	100	100	100	100	100	100	100						
Cc1cc(C(F)(C(F)(F)F)C(F)(F)F)cc(C)c1-n1cc(-c2cnc(Cl)c(C(=O)N(C)C3(C#N)CC3)c2)cn1 [I-T3-103]				100	90	100	100	100	100	100				4.3	4.3	100	100	100	efficacy ([13]; application rate 500 g/ha): 90%
CCc1cc(C(F)(C(F)(F)F)C(F)(F)F)ccc1-n1cc(-c2cnc(Cl)c(C(=O)NC3CC3)c2)cn1 [I-T3-104]			100		100	100	100	100	100	100				4.2	4.2	100	100	90	
CCc1cc(C(F)(C(F)(F)F)C(F)(F)F)ccc1-n1cc(-c2cnc(Cl)c(C(=O)NC3(C#N)CC3)c2)cn1 [I-T3-105]					85	100		100	100	80				4.1	4.1	100	100	90	efficacy ([2]; application rate 0.2 μg/cm2): 100%; efficacy ([13]; application rate 500 g/ha): 90%
Cc1cc(C(F)(C(F)(F)F)C(F)(F)F)cc(C(F)(F)F)c1-n1cc(-c2cnc(Cl)c(C(=O)N(C)C3CC3)c2)cn1 [I-T3-107]				100	100	100	100	100	100	100				4.5	4.5	100	100	100	efficacy ([13]; application rate 500 g/ha): 100%
CN(C(=O)c1cc(-c2cnn(-c3c(Cl)cc(C(F)(C(F)(F)F)C(F)(F)F)cc3C(F)(F)F)c2)cnc1Cl)C1(C#N)CC1 [I-T3-116]				100	100	100	100	100	100	100				4.3	4.3	100	100	90	efficacy ([13]; application rate 100 g/ha): 100%
Cc1ncc(-c2cnn(-c3c(Cl)cc(C(F)(C(F)(F)F)C(F)(F)F)cc3C(F)(F)F)c2)cc1C(=O)NC1CC1 [I-T3-124]				100	100	100	100	100	100	100	100	100	100	3.5	3.5				efficacy ([13]; application rate 100 g/ha): 100%
Cc1ncc(-c2cnn(-c3c(Cl)cc(C(F)(C(F)(F)F)C(F)(F)F)cc3C(F)(F)F)c2)cc1C(=O)N(C)C1(C#N)CC1 [I-T3-131]				100	100	100	100	100	100	100	100	100	100	3.9	3.9				efficacy ([13]; application rate 100 g/ha): 90%
Cc1cc(C(F)(C(F)(F)F)C(F)(F)F)cc(C)c1-c1cnn(-c2cnc(Cl)c(C(=O)NC3(C#N)CC3)c2)c1 [I-T4-4]			100	100	100	100	100	100	100		100	100	100						logP ([1]; HPLC, C18 reversed phase, acetonitrile/water with formic acid, EEC Directive 79/831 Annex V.A8): 4.3
